This test relates to HCV replicon. In words: Cell-Based HCV Replicon Assay. As to conditions: Hepatitis C virus. As to the method: Cell-Based HCV Replicon Assay
To measure cell-based anti-HCV activity of the compounds of the present invention, replicon cells were seeded at 5000 cells/well in 96-well collagen I-coated Nunc plates in the presence of the compound of the invention. Various concentrations of a compound of the invention, typically in 10 serial 2-fold dilutions, were added to the assay mixture, the starting concentration of the compound ranging from 25 μM to 1 μM. The final concentration of DMSO was 0.5%, fetal bovine serum was 10%, in the assay media. Cells were harvested on day 3 by the addition of 1× cell lysis buffer (Ambion cat #8721). The replicon RNA level was measured using real time PCR (Taqman assay). The amplicon was located in 5B. The PCR primers were: 5B.2F, ATGGACAGGCGCCCTGA; 5B.2R, […]; the probe sequence was FAM-labeled CACGCCATGCGCTGCGG. GAPDH RNA was used as endogenous control and was amplified in the same reaction as NS5B (multiplex PCR) using primers and VIC-labeled probe recommended by the manufacturer (PE Applied Biosystem). The real-time RT-PCR reactions were run on ABI PRISM® 7900HT Sequence Detection System using the following program: 48′C for 30 min, 95′C for 10 min, 40 cycles of 95′C for 15 sec, 60′C for 1 min. The ΔCT values (CT5B-CTGAPDH) were plotted against the concentration of test compound and fitted to the sigmoid dose-response model using Graph Pad PRISM® software. EC50 was defined as the concentration of inhibitor necessary to achieve ΔCT=1 over the projected baseline; EC90 the concentration necessary to achieve ΔCT=3.2 over the baseline. Alternatively, to quantitate the absolute amount of replicon RNA, a standard curve was established by including serially diluted T7 transcripts of replicon RNA in the Taqman assay. All Taqman reagents were from PE Applied Biosystems. Such an assay procedure was described in detail in e.g. Malcolm et al., Antimicrobial Agents and Chemotherapy 50: 1013-1020 (2006).
HCV Replicon assay data for compounds of the invention that were tested were obtained using the above method.
(In general: A replicon is a self-replicating genome or part of one, used to study replication in cells.)

Setting [1] is: HCV Replicon assay, EC90 range, Table VI, read-out: EC90.
Setting [2] is: 72 h, Table IV, replicon cells, day 3, real time PCR, EC90 = concentration for ΔCT=3.2 over baseline, read-out: EC90.
Where [3] appears, read: 72 h, Table V, class codes, replicon cells, day 3, real time PCR, EC90 = concentration for ΔCT=3.2 over baseline, read-out: EC90 (uM) range.

Read-outs that look alike come from different tables or passages of the source.

For orientation: EC90 means the point of the concentration-response curve where the effect stands at 90%. Take `Cc1nc(N)nc(N[C@@H]2C[C@H](C(C)(C)S(=O)(=O)c3ccccc3)[C@@H](O)[C@H]2O)c1-c1nc2c(C)nccc2s1` [Example 5076]: the EC90 under setting [1] is below 0.5 µM.

With `Cc1nc(NCC(F)(F)F)nc(N[C@H]2CCC[C@@H]2O)c1-c1nc2c(C)nccc2s1` [Example 5154], the EC90 under setting [1] is below 0.5 µM.

As to `Cc1nc(NCCSC(C)(C)C)nc(N[C@@H]2C[C@H](C3(O)CC3)[C@@H](O)[C@H]2O)c1-c1nc2c(C)nccc2s1` [Example 5237], the EC90 under setting [1] is below 0.5 µM. The same measure, in the same setting: next, `Cc1nc(NCC2CCC2)nc(N[C@@H]2C[C@H](C(C)(F)F)[C@@H](O)[C@H]2O)c1-c1nc2c(C3CC3)nccc2s1` [Example 5183]: below 0.5 µM; `Cc1nc(N)nc(N[C@@H]2C[C@H](C(C)(F)F)[C@@H](O)[C@H]2O)c1-c1nc2c(C3CC3)nccc2s1` [Example 5188]: below 0.5 µM.

Turning to `COC[C@@H](C)Nc1nc(C)c(-c2nc3c(C)nccc3s2)c(N[C@@H]2C[C@H](C3(O)CCCC3)[C@@H](O)[C@H]2O)n1` [Example 5104], under setting [1], the EC90 is below 0.5 µM. Regarding `CO[C@@H]1CCCC[C@H]1Nc1nc(C)c(-c2nc3c(C4CC4)nccc3s2)c(N[C@@H]2C[C@H](CO)[C@@H](O)[C@H]2O)n1` [Example 5141], the EC90 under setting [1] is below 0.5 µM.

In the case of `CCc1nccc2sc(-c3c(C)nc(NCC(F)(F)F)nc3N[C@@H]3C[C@H](CS(=O)(=O)c4ccc(F)c(C)c4)[C@@H](O)[C@H]3O)nc12` [Example 5019], the EC90 under setting [1] is below 0.5 µM.

Regarding `CO[C@@H]1[C@H](OC)[C@@H](C(C)(C)O)C[C@H]1Nc1nc(NCc2c(F)cc(F)cc2F)nc(C)c1-c1nc2c(C)nccc2s1` [Example 5266], the EC90 under setting [1] was below 0.5 µM.

Turning to `Cc1nc(NCC2CC2)nc(N[C@@H]2C[C@H](NC(=O)NC3CCCC3)[C@@H](O)[C@H]2O)c1-c1nc2c(C3CC3)nccc2s1` [Example 5093], under setting [1], the EC90 is below 0.5 µM.

`C#CCCNc1nc(C)c(-c2nc3c(C4CC4)nccc3s2)c(N[C@@H]2C[C@H](C(C)(F)F)[C@@H](O)[C@H]2O)n1` [Example 5189]: the EC90 under setting [1] is below 0.5 µM. Still for that read-out and setting: next, `CO[C@H](C)CNc1nc(C)c(-c2nc3c(C4CC4)nccc3s2)c(N[C@@H]2C[C@H](C(N)=O)[C@@H](O)[C@H]2O)n1` [Example 5086]: below 0.5 µM.

With `Cc1nc(NCC(F)(F)C(F)(F)F)nc(NC2(C)CCC2)c1-c1nc2c(C)nccc2s1` [Example 5220], under setting [1], the EC90 is 0.5 to 5 µM. Still for that read-out and setting: next, `Cc1nc(N)nc(N[C@@H]2C[C@H](C(C)(C)S(C)(=O)=O)[C@@H](O)[C@H]2O)c1-c1nc2c(C3CC3)nccc2s1` [Example 5072]: below 0.5 µM; `Cc1nc(NCC2CC2)nc(N[C@@H]2C[C@H](C(C)(C)NS(C)(=O)=O)[C@@H](O)[C@H]2O)c1-c1nc2c(C)nccc2s1` [Example 5044]: below 0.5 µM; `Cc1nc(N)nc(N[C@H]2C=C[C@@H](CO)C2)c1-c1nc2c(C)nccc2s1` [Example 5167]: below 0.5 µM.

As to `Cc1nc(NCC(F)(F)C(F)(F)F)nc(N[C@@H]2C[C@H](C(C)(C)O)[C@@H](O)[C@H]2O)c1-c1nc2c(C)nccc2s1` [Example 4346], the concentration for an effect of 90% (EC90) under setting [2] stood at 0.043 µM. For `Cc1nc(NCC2(O)CC2)nc(N[C@@H]2C[C@H](CS(=O)(=O)c3cc(F)cc(F)c3)[C@@H](O)[C@H]2O)c1-c1nc2c(C)nccc2s1` [Example 5118], under setting [1], the EC90 was below 0.5 µM. For `COC(C)(C)[C@H]1C[C@@H](Nc2nc(NCC3CC3)nc(C)c2-c2nc3c(C)nccc3s2)[C@H](O)[C@@H]1O` [Example 5276], the EC90 under setting [1] is below 0.5 µM.

For the compound `Cc1ccccc1[C@@H](C)Nc1nc(C)c(-c2nc3c(C4CC4)nccc3s2)c(N[C@@H]2C[C@H](CO)[C@@H](O)[C@H]2O)n1` [Example 4934], the EC90 under setting [3] was below 0.5 µM. For `Cc1nc(NC2(CC(C)C)CC2)nc(N[C@@H]2C[C@H](C(C)(C)O)[C@@H](O)[C@H]2O)c1-c1nc2c(C)nccc2s1` [Example 5031], the EC90 under setting [1] lay in the range of 0.5 to 5 µM.

In the case of `Cc1nc(NCc2c(F)cccc2F)nc(N[C@@H]2C[C@H](CS(=O)(=O)c3cc(F)cc(F)c3)[C@@H](O)[C@H]2O)c1-c1nc2c(N)nccc2s1` [Example 5209], the EC90 under setting [1] is below 0.5 µM.

On to `CCO[C@H]1C[C@H](CNc2nc(C)c(-c3nc4c(C5CC5)nccc4s3)c(N[C@@H]3C[C@H](CO)[C@@H](O)[C@H]3O)n2)C1` [Example 5298], for which, under setting [1], the concentration for an effect of 90% (EC90) was below 0.5 µM.

For the compound `Cc1nc(N[C@H]2CCC[C@H]2O)nc(N[C@@H]2C[C@H](CO)[C@@H](O)[C@H]2O)c1-c1nc2c(C)nccc2s1` [Example 5149], the EC90 under setting [1] was below 0.5 µM.

In the case of `Cc1nc(NCCS(C)(=O)=O)nc(N[C@@H]2C[C@H](C(C)(C)O)[C@@H](O)[C@H]2O)c1-c1nc2c(C)nccc2s1` [Example 5249], the EC90 under setting [1] was 0.5 to 5 µM. Same read-out and setting: for `CO[C@@H]1[C@H](OC)[C@@H](C(C)(C)O)C[C@H]1Nc1nc(NCC2CC2)nc(C)c1-c1nc2c(C)nccc2s1` [Example 5265] the value was below 0.5 µM. Same read-out and setting: next, `COCCC1(CNc2nc(C)c(-c3nc4c(C)nccc4s3)c(N[C@@H]3C[C@H](C(C)(C)O)[C@@H](O)[C@H]3O)n2)CCOCC1` [Example 5287]: below 0.5 µM. Same read-out and setting: next, `Cc1nc(N)nc(N[C@@H]2C[C@H](C(C)(C)S(=O)(=O)c3ccccc3)[C@@H](O)[C@H]2O)c1-c1nc2c(N)nccc2s1` [Example 5081]: below 0.5 µM; `Cc1nc(NCC(F)(F)C(F)(F)F)nc(N[C@@H]2C[C@H](C3(O)CCCC3)[C@@H](O)[C@H]2O)c1-c1nc2c(C)nccc2s1` [Example 5114]: below 0.5 µM. With `COC[C@@H](C)Nc1ncc(-c2nc3c(C)nccc3s2)c(N[C@@H]2C[C@H](C(C)(C)O)[C@@H](O)[C@H]2O)n1` [Example 4941], under setting [3], the EC90 is below 0.5 µM. Take `COC(=O)NC(C)(C)[C@H]1C[C@@H](Nc2nc(NC3CC3)nc(C)c2-c2nc3c(C)nccc3s2)[C@H](O)[C@@H]1O` [Example 5050]: the EC90 under setting [1] was below 0.5 µM. Same read-out and setting: next, `Cc1nc(NCCS(=O)(=O)C(C)(C)C)nc(N[C@@H]2C[C@H](C(C)(C)O)[C@@H](O)[C@H]2O)c1-c1nc2c(C)nccc2s1` [Example 5250]: below 0.5 µM; `CO[C@@H](CNc1nc(C)c(-c2nc3cnccc3s2)c(N[C@@H]2C[C@H](C(C)(C)O)[C@@H](O)[C@H]2O)n1)c1ccc(F)cc1` [Example 5228]: below 0.5 µM; `Cc1nc(NCc2cc(F)c(F)cc2F)nc(N[C@@H]2C[C@H]([C@H](O)C(C)C)[C@@H](O)[C@H]2O)c1-c1nc2c(C)nccc2s1` [Example 5106]: below 0.5 µM. As for `Cc1ccc([C@@H](C)Nc2nc(C)c(-c3nc4c(C)nccc4s3)c(N[C@@H]3C[C@H](CO)[C@@H](O)[C@@]3(C)O)n2)cc1` [compound 3815], the EC90 under setting [2] was found to be 0.03 µM.

With `Cc1nc(NCC2CC(F)(F)C2)nc(N[C@@H]2C[C@H](C(C)(F)F)[C@@H](O)[C@H]2O)c1-c1nc2c(C3CC3)nccc2s1` [Example 5177], the EC90 under setting [1] was below 0.5 µM. The same measure, in the same setting: next, `CCNC(=S)N[C@H]1C[C@@H](Nc2nc(N[C@H](C)C3CC3)nc(C)c2-c2nc3c(C4CC4)nccc3s2)[C@H](O)[C@@H]1O` [Example 5024]: below 0.5 µM. As for `Cc1nc(N)nc(N[C@@H]2C[C@H](C(=O)NC(C)(C)C)[C@@H](O)[C@H]2O)c1-c1nc2c(C3CC3)nccc2s1` [Example 4929], the EC90 under setting [3] is below 0.5 µM. The same measure, in the same setting: for `Cc1nc(NCC2CC2)nc(N[C@@H]2C[C@H](CO)[C@@H](O)[C@H]2O)c1-c1nc2cnc(C3CC3)cc2s1` [Example 4942] the value was below 0.5 µM.

With `Cc1nc(NCC2CC2)nc(N[C@@H]2C[C@H](C(=O)NC(C)(C)C)[C@@H](O)[C@H]2O)c1-c1nc2c(C3CC3)nccc2s1` [Example 4931], the EC90 under setting [3] was below 0.5 µM. `Cc1nc(NC2CCC2)nc(N[C@@H]2C[C@H](C(C)(C)S(C)(=O)=O)[C@@H](O)[C@H]2O)c1-c1nc2c(C)nccc2s1` [Example 5062]: the EC90 under setting [1] was below 0.5 µM.

Take `Cc1nc(NC(=N)NCC2CC2)nc(N[C@@H]2C[C@H](C(C)(C)O)[C@@H](O)[C@H]2O)c1-c1nc2c(C)nccc2s1` [Example 5202]: the concentration for an effect of 90% (EC90) under setting [1] is above 25 µM. The same measure, in the same setting: next, `Cc1nc(NCC(F)(F)F)nc(N[C@@H]2C[C@H](C(C)(C)S(C)(=O)=O)[C@@H](O)[C@H]2O)c1-c1nc2c(C3CC3)nccc2s1` [Example 5079]: below 0.5 µM; `Cc1nc(NC2(C3CC3)CC2)nc(NC2(CO)CCCC2)c1-c1nc2c(C)nccc2s1` [Example 5121]: below 0.5 µM.

As for `Cc1nc(NC[C@H]2C[C@@H](c3ccccc3)C2)nc(N[C@@H]2C[C@H](CO)[C@@H](O)[C@H]2O)c1-c1nc2cnccc2s1` [Example 4512], under setting [2], the EC90 was 0.019 µM. For the compound `Cc1nc(N[C@H](C)CSC(C)(C)C)nc(N[C@@H]2C[C@H](C(C)(C)O)[C@@H](O)[C@H]2O)c1-c1nc2c(C)nccc2s1` [Example 5254], the EC90 under setting [1] was below 0.5 µM.

The values above are taken from patent US9433621B2, “Substituted pyridine and pyrimidine derivatives and their use in treating viral infections” (Merck Sharp & Dohme Corp., priority 2010, dated 2016).
